Experimental data taken from patent US20230293639A1, “SYSTEMS, DEVICES, COMPOSITIONS, AND METHODS FOR TREATING DIABETES” (Abvance Therapeutics, Inc., priority 2020, published 2023).

System: patients with Type 1 diabetes
Assay: Liquid meal challenge with IV insulin alone or IV insulin-glucagon co-infusion (4:1)
Type: in vivo, human
Conditions: for Requiring IV glucose rescue: subjects of eleven, rescue if plasma glucose dropped to 50 mg/dl
Method: Referring now to FIG. 12, a study protocol conducted by the applicant in human patients with Type 1 diabetes is illustrated, consistent with the present inventive concepts. […] The liquid meal challenge allows a clinically relevant assessment of plasma glucose rise and fall. […] By protocol, if plasma glucose dropped to 50 mg/dl, a variable glucose infusion was applied to maintain the glucose level at approximately 50 mg/dl, to avoid more serious hypoglycemia from occurring.
FIG. 13 illustrates the glucose excursion following the meal challenge for eleven patients (also referred to as “subjects” herein). […] The glucose excursion data is also presented below in Table 1, which compares peak plasma glucose levels and AUCs (area under curve) for the two treatment groups.

insulin
subjects that had to be rescued (7 subjects whose glucose fell below the pre-meal value in the last 30 minutes): 5 | average glucose infusion rate (7 subjects whose glucose fell below the pre-meal value, last 30 minutes): 5.9 ± 2.2 mg/kg/min | Time <70 mg/dl (eleven Type 1 diabetes patients): 20 ± 7% | ΔPG 0-120AUC (eleven Type 1 diabetes patients, 0-120 min after liquid meal): 8162 ± 1514 mg·min/dL | ΔPG 0-180AUC (eleven Type 1 diabetes patients, 0-180 min after liquid meal): 10501 ± 3014 mg·min/dL | Peak PG (eleven Type 1 diabetes patients, after liquid meal): 224 ± 18 mg/dL | Fasting PG (eleven Type 1 diabetes patients, before liquid meal): 121 ± 5 mg/dL | sympathetic central nervous system response to hypoglycemia (venous plasma norepinephrine and epinephrine) (four patients): elevations of venous plasma norepinephrine and epinephrine | average glucose infusion rate over the last 30 minutes (in all subjects (eleven-subject comparison)): 3.8 ± 1.6 mg/kg/min | PG nadir (lowest point during insulin-alone arm vs equivalent time point during insulin-glucagon arm): 51 ± 4.0 mg/dL | average plasma glucose nadir (seven subjects with plasma glucose <80 mg/dl in insulin-alone arm, matching time point in insulin-glucagon arm): 50 ± 4 mg/dL | Requiring IV glucose rescue (listed as Insulin-Alone): 5/11 | Requiring IV glucose rescue (listed as insulin-alone): Five of eleven | patients rescued with glucose infusions (subset of four patients with more complete hormone analysis): Three out of the four
